# Data from ChEMBL document CHEMBL1157330, “Diplobifuranylones A and B, 5'-monosubstituted tetrahydro-2H-bifuranyl-5-ones produced by Diplodia corticola, a fungus pathogen of cork oak” (J Nat Prod, 2006).
# Tested on: Solanum lycopersicum
# Experiment: Phytotoxicity against Lycopersicon esculentum L. var. Marmande at 0.05 to 0.1 mg/mL by tomato cutting assay
# Type: organism-based
# Details: in vivo
row,Structure (SMILES),Activity
1,C[C@H](O)[C@@H]1C=CC(C2CCC(=O)O2)O1 (some centres not stated) [DIPLOBIFURANYLONE A],Non-toxic
2,C[C@H](O)[C@H]1C=CC(C2CCC(=O)O2)O1 (some centres not stated) [DIPLOBIFURANYLONE B],Non-toxic
